Measurements reported in patent publication US5691373A, “Nonpeptide endothelin antagonists I” (Warner-Lambert Company, priority 1995, dated 1997).
Read-outs that look alike come from different tables or passages of the source.

Tests used:
[1] = biological target: T1, ETA (Oryctolagus cuniculus, UniProt A5A8K3); conditions: for inhibition at 10 µM: read-out: ERBA-A % inhibition
T1 sequence (A5A8K3 21-427): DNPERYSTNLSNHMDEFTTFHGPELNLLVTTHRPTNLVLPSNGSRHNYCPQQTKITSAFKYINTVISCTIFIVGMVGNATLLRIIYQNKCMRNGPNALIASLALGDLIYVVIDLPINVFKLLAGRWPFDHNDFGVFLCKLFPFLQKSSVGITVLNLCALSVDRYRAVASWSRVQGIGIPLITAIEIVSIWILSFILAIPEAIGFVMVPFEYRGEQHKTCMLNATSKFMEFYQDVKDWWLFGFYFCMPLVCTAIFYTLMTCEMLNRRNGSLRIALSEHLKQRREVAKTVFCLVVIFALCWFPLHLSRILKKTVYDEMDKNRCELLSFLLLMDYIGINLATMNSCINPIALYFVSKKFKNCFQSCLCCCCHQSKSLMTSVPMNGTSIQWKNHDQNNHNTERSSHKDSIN
Method: The cells used were rabbit renal artery vascular smooth muscle cells grown in a 48-well dish (1 cm^2) (confluent cells).
The growth media was Dulbecco's Modified Eagles/Ham's F12 which contained 10% fetal bovine serum and antibiotics (penicillin/streptomycin/fungizone).
Second, remove the assay buffers, place the dish on ice, and add 150 μL of cold assay buffer described above to each well. […] Next, place dish in a 37° C., water bath for about 2 hours and gently agitate the dish every 15 minutes. Discard the radioactive incubation mixture in the sink and wash wells 3 times with 1 mL of cold phosphate buffered saline.

[2] = biological target: T2, ETB (Rattus norvegicus, UniProt P21451); conditions: for inhibition at 10 µM: read-out: ERBA-B % inhibition
T2 sequence (P21451 27-442): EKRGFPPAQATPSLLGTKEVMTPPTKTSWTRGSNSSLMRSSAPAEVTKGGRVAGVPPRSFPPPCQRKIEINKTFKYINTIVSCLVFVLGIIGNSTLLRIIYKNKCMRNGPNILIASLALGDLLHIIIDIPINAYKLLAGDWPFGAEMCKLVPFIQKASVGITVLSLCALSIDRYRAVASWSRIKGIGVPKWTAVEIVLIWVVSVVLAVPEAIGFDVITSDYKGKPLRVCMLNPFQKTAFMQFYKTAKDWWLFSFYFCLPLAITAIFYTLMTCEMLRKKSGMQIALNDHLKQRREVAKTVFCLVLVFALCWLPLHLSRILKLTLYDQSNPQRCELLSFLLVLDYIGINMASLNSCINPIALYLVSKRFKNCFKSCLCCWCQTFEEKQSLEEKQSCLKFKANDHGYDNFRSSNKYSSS
Method: The tissue is made up of 20 mM tris(hydroxymethyl)aminomethane hydrochloride (Trizma) buffer, 2 mM ethylenediaminetetra acetate, 100 μM phenylmethylsulfonyl fluoride.
First, thaw one aliquot of frozen rat cerebellar membranes (2 mg protein in 0.5 mL). Next, add 0.5 mL membrane aliquot to 4.5 mL cold tissue buffer, polytron at 7,500 revolutions per minute for 10 seconds. Finally, dilute tissue suspension 1/100 (0.1 mL suspension+9.9 mL tissue buffer), polytron again, and place ice.
Mix in 150 μL of tissue to each tube, vortex briefly, then tap to force all liquids to bottom (total assay volume=250 μL). Then place the tubes in a 37° C. water bath for 2 hours.
Add 2.5 mL cold wash buffer (50 mM Trizma buffer) to each tube, filter, and then wash tube with additional 2.5 mL wash buffer and add to filter. Finally, wash filters with an additional 2.5 mL of cold wash buffer.
Count filters for radioactivity in gamma counter.

[3] = read-out: ERBA-B IC50, [125I]-ET-1, rat cerebellar membranes
[4] = ERBA-A IC50, [125I]-ET-1, rabbit renal artery vascular smooth muscle cells

| Compound | IC50 [2] [µM] | IC50 [1, 4] [µM] | further results |
| --- | --- | --- | --- |
| CC(C)c1ccc(C2=C(Cc3ccccc3)C(O)(c3ccc(Cl)cc3)OC2=O)cc1 (racemic) [Example 4, 2(5H)-Furanone, 5-(4-chlorophenyl)-5-hydroxy-3-[4-(1-methylethyl)phenyl]-4-(phenylmethyl)- , (±)-] | – | – | inhibition at 10 µM [1]: 34%; inhibition at 10 µM [2]: 52% |
| CC(C)c1ccc(C2=C(Cc3ccc4ccccc4c3)C(O)(c3ccc(Cl)cc3)OC2=O)cc1 (racemic) [Example 41, 2(5H)-Furanone, 5-(4-chlorophenyl)-5-hydroxy-3-[4-(1-methylethyl)phenyl]-4-(2-naphthalenylmethyl)-, (±)-] | 9 | – | inhibition at 10 µM [1]: 37% |
| CC(C)c1ccc(C2=C(Cc3ccc4c(c3)OCO4)C(O)(c3ccc(Cl)cc3)OC2=O)cc1 (racemic) [Example 42, 2(5H)-Furanone, 4-(1,3-benzodioxol-5-ylmethyl)-5-(4-chlorophenyl)-5-hydroxy-3-[4-(1-methylethyl)phenyl]-, (±)-] | – | – | inhibition at 10 µM [1]: 36%; inhibition at 10 µM [2]: 54% |
| O=C1OC(O)(c2ccc(Cl)cc2)C(Cc2ccc3ccccc3c2)=C1c1ccc2c(c1)OCO2 (racemic) [Example 43, 2(5H)-Furanone, 3-(1,3-benzodioxol-5-yl)-5-(4-chlorophenyl)-5-hydroxy-4-(2-naphthalenylmethyl)-, (±)-] | – | – | IC50 ([1]; read-out: ERBA-A IC50, [125I]-ET-1, rabbit renal artery vascular smooth muscle cells): 2.7 µM; IC50 [2, 3]: 7 µM |
| O=C1OC(O)(c2ccc(Cl)cc2)C(Cc2cccc3ccccc23)=C1c1ccc2c(c1)OCO2 (racemic) [Example 44, 2(5H)-Furanone) 3-(1,3-benzodioxol-5-yl)-5-(4-chlorophenyl)-5-hydroxy-4-(1-naphthalenylmethyl)-, (±)-] | – | 2.8 | inhibition at 10 µM [2]: 35% |
| CC(C)c1ccc(CC2=C(c3ccc4c(c3)OCO4)C(=O)OC2(O)c2ccc(Cl)cc2)cc1 (racemic) [Example 45, 2(5H)-Furanone, 3-(1,3-benzodioxol-5-yl)-5-(4-chlorophenyl)-5-hydroxy-4-[[4-(1-methylethyl)phenyl]methyl]-, (35)-] | 9.1 | 1.5 | – |
| O=C1OC(O)(c2ccc(Cl)cc2)C(Cc2ccc3c(c2)OCO3)=C1c1ccc2c(c1)OCO2 (racemic) [Example 46, 2(5H)-Furanone, 3-(1,3-benzodioxol-5-yl)-4-(1,3-benzodioxol-5-ylmethyl)-5-(4-chlorophenyl)-5-hydroxy-, (±)-] | 6.4 | 3.6 | – |
| O=C1OC(O)(c2ccc(Cl)cc2)C(Cc2ccccc2)=C1c1ccc(Cl)c(Cl)c1 (racemic) [Example 61, 2(5H)-Furanone, 5-(4-chlorophenyl)-3-(3,4-dichlorophenyl)-5-hydroxy-4-(phenylmethyl)-, (±)-] | 11 | 11 | – |
| COc1ccc(C2=C(Cc3ccc4c(c3)OCO4)C(O)(c3ccc(Cl)cc3)OC2=O)cc1OC (racemic) [Example 65, 2(5H)-Furanone, 4-(1,3-benzodioxol-5-ylmethy)-5-(4-chlorophenyl)-3-(3,4-dimethoxyphenyl)-5-hydroxy, (±)-] | 6 | 9.3 | – |
| Cn1cc(CC2=C(c3ccc4c(c3)OCO4)C(=O)OC2(O)c2ccc(Cl)cc2)c2ccccc21 (racemic) [Example 66, 2 (5H)-Furanone, 3-(1,3-benzodioxol-5-yl)-5-(4-chlorophenyl)-5-hydroxy-4-[(1-methyl-1H-indol-3-yl)methyl], (±)-] | 7.4 | 2.4 | – |
| COc1ccc(C2=C(Cc3ccccc3)C(O)(c3ccc(Cl)cc3)OC2=O)cc1OC (racemic) [Example 67, 2(5H)-Furanone, 5-(4-chlorophenyl)-3-(3,4-dimethoxyphenyl)-5-hydroxy-4-(phenylmethyl)-, (±)-] | 6.3 | 7.1 | – |
| COc1ccc(CC2=C(c3ccc(OC)c(OC)c3)C(=O)OC2(O)c2ccc(Cl)cc2)cc1OC (racemic) [Example 68, 2(5H)-Furanone, 5-(4-chlorophenyl)-3-(3,4-dimethoxyphenyl)-4-[(3,4-dimethoxyphenyl)methyl]-5-hydroxy-, (±)-] | 9.8 | 1.7 | – |
| O=C1OC(O)(c2ccc(Cl)cc2)C(Cc2ccc3c(c2)OCO3)=C1c1ccc(Cl)c(Cl)c1 (racemic) [Example 69, 2(5H)-Furanone, 4-(1,3-benzodioxol-5-ylmethyl)-5-(4-chlorophenyl)-3-(3,4-dichlorophenyl)-5-hydroxy-, (±)-] | 8.4 | 9.1 | – |
| COc1ccc(C2=C(Cc3ccc(C(C)C)cc3)C(O)(c3ccc(Cl)cc3)OC2=O)cc1OC (racemic) [Example 70, 2(5H)-Furanone, 5-(4-chlorophenyl)-3-(3,4-dimethoxyphenyl)-5-hydroxy-4-[[4-(1-methylethyl)phenyl]methyl]-, (±)-] | 15 | 9.3 | – |
| COc1ccc(C2=C(Cc3ccc(Cl)c(Cl)c3)C(O)(c3ccc(Cl)cc3)OC2=O)cc1OC (racemic) [Example 73, 2(5H)-Furanone, 5-(4-chlorophenyl)-4-[(3,4-dichlorophenyl)methyl]-3-(3,4-dimethoxyphenyl)-5-hydroxy-, (±)-] | 13 | 21 | – |
| O=C1OC(O)(c2ccccc2)C(Cc2ccccc2)=C1c1ccc2c(c1)OCO2 (stereo not shown) [Example 24, 2(5H)-Furanone, 3-(1,3-benzodioxol-5-yl)-5-hydroxy-5-phenyl-4-(phenylmethyl)-] | 26 | – | – |
| O=C1OC(O)(c2ccccc2)C(Cc2cccs2)=C1c1ccc2c(c1)OCO2 (stereo not shown) [Example 25, 2(5H)-Furanone, 3-(1,3-benzodioxol-5-yl)-5-hydroxy-5-phenyl-4-(2-thienylmethyl)-] | 15.6 | 1.7 | – |
| O=C1OC(O)(c2ccccc2)C(Cc2ccsc2)=C1c1ccc2c(c1)OCO2 (stereo not shown) [Example 26, 2(5H)-Furanone, 3-(1,3-benzodioxol-5-yl)-5-hydroxy-5-phenyl-4-(3-thienylmethyl)-] | 15.5 | 0.79 | – |
| O=C1OC(O)(c2ccc(Cl)cc2)C(Cc2ccccc2)=C1c1ccc2c(c1)OCCO2 (stereo not shown) [Example 30, 2(5H)-Furanone, 5-(4-chlorophenyl)-3-(2,3-dihydro-1,4-benzodioxin-6-yl)-5-hydroxy-4-(phenylmethyl)-] | 13 | 7.9 | – |
| O=C1OC(O)(c2ccc(Cl)cc2)C(Cc2ccc(Cl)cc2)=C1c1ccc2c(c1)OCO2 (stereo not shown) [Example 31, 2(5H)-Furanone, 3-(1,3-benzodioxol-5-yl)-5-(4-chlorophenyl)-4-[(4-chlorophenyl)methyl]-5-hydroxy-] | 9.1 | 9.9 | – |
| COc1ccc(CC2=C(c3ccc4c(c3)OCO4)C(=O)OC2(O)c2ccc(Cl)cc2)cc1 (stereo not shown) [Example 32, 2(5H)-Furanone, 3-(1,3-benzodioxol-5-yl)-5-(4-chlorophenyl)-5-hydroxy-4-[(4-methoxyphenyl)methyl]-] | 6.3 | 1 | – |
| Cc1ccc(CC2=C(c3ccc4c(c3)OCO4)C(=O)OC2(O)c2ccc(Cl)cc2)cc1 (stereo not shown) [Example 33, 2(5H)-Furanone, 3-(1,3-benzodioxol-5-yl)-5-(4-chlorophenyl)-5-hydroxy-4-[(4-methylphenyl)methyl]-] | 5.7 | 3.5 | – |
| Cc1cccc(CC2=C(c3ccc4c(c3)OCO4)C(=O)OC2(O)c2ccc(Cl)cc2)c1 (stereo not shown) [Example 34, 2(5H)-Furanone, 3-(1,3-benzodioxol-5-yl)-5-(4-chlorophenyl)-5-hydroxy-4-[(3-methylphenyl)methyl]-] | 7 | 1.3 | – |
| O=C1OC(O)(c2ccc(Cl)cc2)C(Cc2cccs2)=C1c1ccc2c(c1)OCO2 (stereo not shown) [Example 35, 2(5H)-Furanone, 3-(1,3-benzodioxol-5-yl)-5-(4-chlorophenyl)-5-hydroxy-4-(2-thienylmethyl)-] | 3.3 | 1.1 | – |
| O=C1OC(O)(c2ccc(Cl)cc2)C(Cc2ccccc2)=C1c1ccc2c(c1)OCO2 (stereo not shown) [Example 39, 2(5H)-Furanone, 3-(1,3-benzodioxol-5-yl)-5-(4-chlorophenyl)-5-hydroxy-4-(phenylmehyl)-] | 4.2 | – | – |
| COc1cccc(CC2=C(c3ccc4c(c3)OCO4)C(=O)OC2(O)c2ccc(Cl)cc2)c1 (stereo not shown) [Example 47, 2(5H)-Furanone, 3-(1,3-benzodioxol-5-yl)-5-(4-chlorophenyl)-5-hydroxy-4-[(3-methoxyphenyl)methyl]-] | 7.8 | 3.9 | – |
| COc1ccc(CC2=C(c3ccc4c(c3)OCO4)C(=O)OC2(O)c2ccc(OC)cc2)cc1 (stereo not shown) [Example 77, 3-Benzo[1,3]dioxol-5-yl-5-hydroxy-4-(4-methoxybenzyl)-5-(4-methoxyphenyl)-5 H-furan-2-one] | – | – | IC50 [2, 3]: 0.22 µM |
| COc1ccc(C2(O)OC(=O)C(c3ccc4c(c3)OCO4)=C2Cc2ccc(Cl)cc2)cc1 (stereo not shown) [Example 81, 3-Benzo[1,3]dioxol-5-yl-4-(4-chlorobenzyl)-5-hydroxy-5-(4-methoxophenyl)-5H -furan-2-one] | – | – | IC50 [2, 3]: 0.72 µM |
